Data published in patent publication US12350708B2, “Molecular coatings and methods of making and using the same” (Glisten LLC, priority 2019, dated 2025).

Assay: water contact angle testing of diamond surfaces
Format: physicochemical
Conditions: diamond surface, Example 11, FIGS. 20A-20D; uncoated diamond approximately 65°
Description: In some embodiments, water contact angle goniometry can be used to probe the surface properties and performance of the functionalized gemstones (e.g., of the diamond surface, of the surface after the anchor molecule is bound, and/or of the surface after the host molecule is bound forming an inclusion complex). In some embodiments, comparisons of water contact angle can be employed to analytically determine the specific coverage of adsorbed species pertaining to the anchor and to the host/guest complex. In some embodiments, water contact angle can be used to determine the durability of the gemstone coating by performing measurements at various stages of time after normal use after the host/guest inclusion complexes are formed. […]
(§1) Self-assembly of the β-cyclodextrin is analyzed with water contact angle. Angles will decrease according to the quantity of cyclodextrin residing on the substrate. The change in the refractive index of the surface after molecular coating is determined using optical ellipsometry. […]
as §1

contact angle: 61 °
Compound: OC[C@H]1O[C@@H]2O[C@H]3[C@H](O)[C@@H](O)[C@@H](O[C@H]4[C@H](O)[C@@H](O)[C@@H](O[C@H]5[C@H](O)[C@@H](O)[C@@H](O[C@H]6[C@H](O)[C@@H](O)[C@@H](O[C@H]7[C@H](O)[C@@H](O)[C@@H](O[C@H]8[C@H](O)[C@@H](O)[C@@H](O[C@H]1[C@H](O)[C@H]2O)O[C@@H]8CO)O[C@@H]7CO)O[C@@H]6CO)O[C@@H]5CO)O[C@@H]4CO)O[C@@H]3CO [b-cyclodextrin, β-cyclodextrin]
